Measurements taken from patent US20060067931A1, “Receptor for lysophosphatidylcholine in vascular endothelial cells and use thereof” (priority 2004, published 2006).

What was measured:
Assay type in all cases: cell-based, human
[1] = tested on: monocyte transmigration across HBMEC; experiment: Monocyte transmigration assay across HBMEC
[2] = tested on: GPR4 mRNA; experiment: RT-PCR of GPR4 mRNA in HMEC; conditions: within 2 hours, TNF-α 100 U/ml or H2O2
[3] = tested on: GPR4 mRNA; experiment: RT-PCR of GPR4 mRNA in HBMEC; conditions: within 2 hours, TNF-α 100 U/ml or H2O2

For C3 transferase, which “effect on basal monocyte transmigration” value [1] is on record?
The value was “did not change basal monocyte transmigration”.

What about the “inhibition of LPC-induced monocyte transmigration” value [1] of the same molecule?
Its value is “about 65%”.

For TNF-α, which “GPR4 mRNA over control” value [2] is on record?
Its value is “not HMEC”.

And the “GPR4 mRNA over control” value [3]?
Its value is “increased GPR4 mRNA over control”.

With `OO` [H2O2] as the molecule, how does the “GPR4 mRNA over control” value [2] read?
The value was “not HMEC”.

What about the “GPR4 mRNA over control” value [3] of the same molecule?
The value was “increased GPR4 mRNA over control”.
